How the values were obtained:
[1] = test system: Pyricularia orzae; test: whole plant or invertebrate; type: in vivo, Pyricularia orzae (rice plant, Chukyo Asahi); conditions: in Oryza sativa, 120 h, read-out: Protective value
[2] = test system: Rhizoctonia solani; test: whole plant or invertebrate; type: in vivo, Rhizoctonia solani (rice plant, Chukyo Asahi); conditions: in Oryza sativa, 120 h, read-out: Preventive value
[3] = test system: Botrytis cinerea; test: Test 9: protective value on cucumber inoculated with Botrytis cinerea; type: in vivo, Botrytis cinerea (cucumber plant, Suyo); conditions: 72 h, 250 ppm, 10 ml sprayed, lesion length three days after inoculation
Description: In each unglazed pot having a diameter of 9 cm, cucumber plant (Suyo) was cultured. At one leaf stage, 10 ml. of each solution of each active ingredient having a concentration of 250 ppm was sprayed by a spray gun. After maintaining the pot in a green-house at 24° to 25° C. for one day, a disc (punched agar disc) obtained by culturing Botrytis cinerea on a potato-glucose-agar medium (PDA medium) was put on the leaf of cucumber to inoculate them. Three days after the inoculation, lengths of lesions were measured and each protective value was calculated as Test 2.
In accordance with the test, except the concentration of the active ingredient was decreased, the comparative tests of Compound No. 7 and Reference compound were carried out.

[4] = test system: Plutella xylostella; test: Test 11: mortality of larvae of Plutella xylostella on treated cabbage leaf; type: in vivo; conditions: foliar, 192 h, leaf dipped, emulsifiable concentrate Composition No. 3, eight days, read-out: Percent mortality
Text: Each emulsifiable concentrate of each active ingredient as Composition No. 3 was dispersed in water at a concentration of 800 ppm. Each leaf of cabbage was dipped into each emulsion for about 10 seconds and taken up and dried in air.
A wet filter paper was put in each Petri dish (diameter of 9 cm), and each treated leaf was put on the filter paper. Larvae of Plutella xylostella at 2nd to 3rd instar were charged and the dish was covered with a cap and kept in a constant temperature chamber with lighting at 28° C. Eight days after the charge, mortality was measured and each percent mortality was calculated.

SMILES: O=[N+]([O-])c1cc(C(F)(F)F)cc([N+](=O)[O-])c1Nc1ccc(Cl)cn1 [Compound No. 1]
- pest or weed control at 100 ppm [1]: 91%

SMILES: O=[N+]([O-])c1cc(C(F)(F)F)c(Cl)c([N+](=O)[O-])c1Nc1cc(Cl)cc(Cl)n1 [Compound No. 6]
- pest or weed control at 100 ppm [2]: 100%

SMILES: COc1ccc(Nc2c([N+](=O)[O-])cc(C(F)(F)F)cc2[N+](=O)[O-])c(OC)n1 [Compound No. 25]
- pest or weed control at 100 ppm [1]: 85%

SMILES: O=[N+]([O-])c1cc(C(F)(F)F)c(Cl)c([N+](=O)[O-])c1Nc1ccc(Cl)cn1 [compound 5]
- pest or weed control at 100 ppm [1]: 100%

SMILES: Cc1nc(Nc2c([N+](=O)[O-])cc(C(F)(F)F)cc2[N+](=O)[O-])c(Cl)c(C)c1Cl [compound 9]
- pest or weed control at 100 ppm [1]: 83%

SMILES: Cc1cc(Nc2c([N+](=O)[O-])cc(C(F)(F)F)c(Cl)c2[N+](=O)[O-])ncc1Br [compound 10]
- pest or weed control at 100 ppm [1]: 86%

SMILES: Cc1nc(Nc2c([N+](=O)[O-])cc(C(F)(F)F)c(Cl)c2[N+](=O)[O-])c(Cl)c(C)c1Cl [compound 11]
- pest or weed control at 100 ppm [1]: 84%

SMILES: Cc1c(Cl)cnc(Nc2c([N+](=O)[O-])cc(C(F)(F)F)cc2[N+](=O)[O-])c1Cl [compound 13]
- pest or weed control at 100 ppm [1]: 92%

SMILES: O=[N+]([O-])c1cc(C(F)(F)F)c(Cl)c([N+](=O)[O-])c1Nc1ncc(Br)cc1Br [compound 17]
- pest or weed control at 100 ppm [1]: 100%
- pest or weed control at 250 ppm [3]: 92%

SMILES: O=[N+]([O-])c1cc(C(F)(F)F)c(Cl)c([N+](=O)[O-])c1Nc1ncc(Cl)cc1Br [compound 18]
- pest or weed control at 100 ppm [1]: 100%
- pest or weed control at 100 ppm [2]: 100%
- pest or weed control at 250 ppm [3]: 100%

SMILES: O=[N+]([O-])c1cc(C(F)(F)F)c(Cl)c([N+](=O)[O-])c1Nc1ccc(C(F)(F)F)cn1 [compound 19]
- pest or weed control at 100 ppm [1]: 100%
- pest or weed control at 100 ppm [2]: 100%
- pest or weed control at 250 ppm [3]: 100%

SMILES: CCc1nc(Nc2c([N+](=O)[O-])cc(C(F)(F)F)c(Cl)c2[N+](=O)[O-])ccc1Br [compound 23]
- pest or weed control at 100 ppm [1]: 93%
- pest or weed control at 250 ppm [3]: 81%

SMILES: CCc1nc(Nc2c([N+](=O)[O-])cc(C(F)(F)F)cc2[N+](=O)[O-])ccc1Br [compound 24]
- pest or weed control at 100 ppm [1]: 90%

SMILES: O=[N+]([O-])c1cc(C(F)(F)F)c(Cl)c([N+](=O)[O-])c1Nc1ncc(Br)cc1C(F)(F)F [compound 30]
- pest or weed control at 100 ppm [1]: 100%
- pest or weed control at 100 ppm [2]: 95%
- pest or weed control at 250 ppm [3]: 100%

SMILES: O=[N+]([O-])c1cc(C(F)(F)F)c(Cl)c([N+](=O)[O-])c1Nc1nc(Cl)c(C(F)(F)F)cc1Cl [compound 35]
- pest or weed control at 100 ppm [1]: 95%
- pest or weed control at 100 ppm [2]: 100%
- pest or weed control at 250 ppm [3]: 100%

SMILES: O=[N+]([O-])c1cc(C(F)(F)F)c(F)c([N+](=O)[O-])c1Nc1ncc(C(F)(F)F)cc1Cl [compound 38]
- pest or weed control at 100 ppm [1]: 100%

SMILES: CC(C)Oc1c(C(F)(F)F)cc([N+](=O)[O-])c(Nc2ncc(C(F)(F)F)cc2Cl)c1[N+](=O)[O-] [compound 42]
- pest or weed control at 100 ppm [1]: 95%
- pest or weed control at 100 ppm [2]: 95%
- mortality at 800 ppm [4]: 100%

SMILES: CCCCOc1c(C(F)(F)F)cc([N+](=O)[O-])c(Nc2ncc(C(F)(F)F)cc2Cl)c1[N+](=O)[O-] [compound 43]
- pest or weed control at 100 ppm [1]: 95%
- pest or weed control at 100 ppm [2]: 95%
- mortality at 800 ppm [4]: 100%

SMILES: CC(C)COc1c(C(F)(F)F)cc([N+](=O)[O-])c(Nc2ncc(C(F)(F)F)cc2Cl)c1[N+](=O)[O-] [compound 44]
- pest or weed control at 100 ppm [1]: 95%
- pest or weed control at 100 ppm [2]: 95%

SMILES: CSc1c(C(F)(F)F)cc([N+](=O)[O-])c(Nc2ncc(C(F)(F)F)cc2Cl)c1[N+](=O)[O-] [compound 45]
- pest or weed control at 100 ppm [1]: 100%
- pest or weed control at 100 ppm [2]: 100%

SMILES: CCSc1c(C(F)(F)F)cc([N+](=O)[O-])c(Nc2ncc(C(F)(F)F)cc2Cl)c1[N+](=O)[O-] [compound 46]
- pest or weed control at 100 ppm [1]: 95%

SMILES: O=[N+]([O-])c1cc(C(F)(F)F)c(O)c([N+](=O)[O-])c1Nc1ncc(C(F)(F)F)cc1Cl [compound 47]
- pest or weed control at 100 ppm [1]: 95%
- pest or weed control at 100 ppm [2]: 95%

SMILES: O=[N+]([O-])c1cc(C(F)(F)F)c(Oc2ccccc2O)c([N+](=O)[O-])c1Nc1ncc(C(F)(F)F)cc1Cl [compound 48]
- pest or weed control at 100 ppm [2]: 100%
- pest or weed control at 250 ppm [3]: 100%

SMILES: O=[N+]([O-])c1cc(C(F)(F)F)c(Oc2cccc(O)c2)c([N+](=O)[O-])c1Nc1ncc(C(F)(F)F)cc1Cl [compound 50]
- pest or weed control at 100 ppm [2]: 100%
- pest or weed control at 250 ppm [3]: 100%

SMILES: O=[N+]([O-])c1cc([N+](=O)[O-])c(Nc2ccc(I)cn2)c(C(F)(F)F)c1 [compound 53]
- mortality at 800 ppm [4]: 100%

SMILES: O=[N+]([O-])c1cc([N+](=O)[O-])c(Nc2cccnc2Cl)c(C(F)(F)F)c1 [compound 55]
- mortality at 800 ppm [4]: 100%

SMILES: Cc1ccnc(Nc2c([N+](=O)[O-])cc([N+](=O)[O-])cc2C(F)(F)F)c1 [compound 56]
- mortality at 800 ppm [4]: 100%

SMILES: O=[N+]([O-])c1cc([N+](=O)[O-])c(Nc2ccc(C(F)(F)F)cn2)c(C(F)(F)F)c1 [compound 57]
- mortality at 800 ppm [4]: 100%

SMILES: O=[N+]([O-])c1cc([N+](=O)[O-])c(Nc2cccnc2)c(C(F)(F)F)c1 [compound 58]
- mortality at 800 ppm [4]: 100%

SMILES: O=[N+]([O-])c1cc([N+](=O)[O-])c(Nc2ccncc2)c(C(F)(F)F)c1 [compound 59]
- mortality at 800 ppm [4]: 100%

SMILES: Cc1cnc(Nc2c([N+](=O)[O-])cc([N+](=O)[O-])cc2C(F)(F)F)c(Br)c1 [compound 64]
- pest or weed control at 50 ppm [1]: 100%
- pest or weed control at 100 ppm [2]: 100%
- mortality at 800 ppm [4]: 100%

SMILES: CCc1nc(Nc2c([N+](=O)[O-])cc([N+](=O)[O-])cc2C(F)(F)F)ccc1I [compound 67]
- pest or weed control at 50 ppm [1]: 100%
- mortality at 800 ppm [4]: 100%

SMILES: Cc1nc(Nc2c([N+](=O)[O-])cc([N+](=O)[O-])cc2C(F)(F)F)c(Cl)cc1Cl [compound 68]
- pest or weed control at 50 ppm [1]: 100%
- pest or weed control at 100 ppm [2]: 100%
- mortality at 800 ppm [4]: 100%

SMILES: Cc1nc(Nc2c([N+](=O)[O-])cc([N+](=O)[O-])cc2C(F)(F)F)ccc1Cl [compound 69]
- pest or weed control at 50 ppm [1]: 100%

SMILES: O=[N+]([O-])c1cc([N+](=O)[O-])c(Nc2cc(Cl)cc(Cl)n2)c(C(F)(F)F)c1 [compound 72]
- pest or weed control at 100 ppm [2]: 100%

SMILES: Cc1cc(Cl)cc(Nc2c([N+](=O)[O-])cc([N+](=O)[O-])cc2C(F)(F)F)n1 [compound 73]
- pest or weed control at 100 ppm [2]: 87%

SMILES: COc1ccc(Nc2c([N+](=O)[O-])cc([N+](=O)[O-])cc2C(F)(F)F)nc1 [compound 74, N-(5-methoxy-2-pyridyl)-2,4-dinitro-6-trifluoromethylaniline]
- pest or weed control at 100 ppm [2]: 93%
- mortality at 800 ppm [4]: 100%

SMILES: O=[N+]([O-])c1cc([N+](=O)[O-])c(Nc2ccc(Cl)nc2Cl)c(C(F)(F)F)c1 [compound 75]
- pest or weed control at 50 ppm [1]: 100%
- pest or weed control at 100 ppm [2]: 100%

SMILES: O=[N+]([O-])c1cc([N+](=O)[O-])c(Nc2nc(Cl)ccc2C(F)(F)F)c(C(F)(F)F)c1 [compound 76]
- pest or weed control at 50 ppm [1]: 100%
- pest or weed control at 100 ppm [2]: 100%

SMILES: Cc1c(Cl)cnc(Nc2c([N+](=O)[O-])cc([N+](=O)[O-])cc2C(F)(F)F)c1Cl [compound 78]
- pest or weed control at 50 ppm [1]: 100%
- pest or weed control at 100 ppm [2]: 100%

SMILES: O=[N+]([O-])c1cc([N+](=O)[O-])c(Nc2c(Cl)cncc2Cl)c(C(F)(F)F)c1 [compound 79]
- pest or weed control at 100 ppm [2]: 90%

SMILES: O=[N+]([O-])c1cc([N+](=O)[O-])c(Nc2ncc(C(F)(F)F)cc2Br)c(C(F)(F)F)c1 [compound 80]
- pest or weed control at 50 ppm [1]: 100%
- pest or weed control at 100 ppm [2]: 100%

SMILES: O=[N+]([O-])c1cc([N+](=O)[O-])c(Nc2nc(Cl)c(Br)cc2C(F)(F)F)c(C(F)(F)F)c1 [compound 82]
- pest or weed control at 50 ppm [1]: 100%

SMILES: O=[N+]([O-])c1cc([N+](=O)[O-])c(Nc2ncc(Cl)cc2C(F)(F)F)c(C(F)(F)F)c1 [compound 83]
- pest or weed control at 50 ppm [1]: 100%
- mortality at 800 ppm [4]: 100%

SMILES: O=[N+]([O-])c1cc([N+](=O)[O-])c(Nc2ncc(Br)cc2C(F)(F)F)c(C(F)(F)F)c1 [compound 84]
- pest or weed control at 50 ppm [1]: 100%

SMILES: COc1c([N+](=O)[O-])cc(C(F)(F)F)c(Nc2ncc(C(F)(F)F)cc2Cl)c1[N+](=O)[O-] [compound 85, N-(3-chloro-5-trifluoromethyl-2-pyridyl)-2,4-dinitro-3-methoxy-6-trifluoromethylaniline]
- pest or weed control at 50 ppm [1]: 100%
- pest or weed control at 100 ppm [2]: 100%

SMILES: COc1c([N+](=O)[O-])cc(C(F)(F)F)c(Nc2ncc(Cl)cc2Cl)c1[N+](=O)[O-] [compound 86]
- pest or weed control at 50 ppm [1]: 100%
- pest or weed control at 100 ppm [2]: 100%

SMILES: Cc1cc(Nc2c([N+](=O)[O-])cc([N+](=O)[O-])cc2C(F)(F)F)ncc1Br [compound 87]
- pest or weed control at 50 ppm [1]: 100%
- pest or weed control at 100 ppm [2]: 100%
- mortality at 800 ppm [4]: 100%

SMILES: O=[N+]([O-])c1cc(C(F)(F)F)cc(C(F)(F)F)c1Nc1ccc(C(F)(F)F)c(Cl)n1 [compound 92]
- pest or weed control at 50 ppm [1]: 100%

Source: patent US4331670A (priority 1979, dated 1982)
